# Measurements taken from PMC5395518, “Design, synthesis, and biological evaluation of the novel glycyrrhetinic acid-cinnamoyl hybrids as anti-tumor agents” (Chemistry Central Journal, 2016).
# Legend:
# [1] = tested on: HT-29 cells; assay: MTT cytotoxicity assay, HT-29; type: cell-based, human; conditions: mean ± SD (n = 3)
# Description: (§1) HepG2 (human hepatocellular carcinoma), Hela (human cervical cancer), HT-29 (human colon carcinoma), MDCK (Madin–Darby canine kidney), H9C2 (rat myocardial cells) and HY926 were purchased from the Chinese Academy of Medical Sciences and Peking Union Medical College. All of these cell lines were maintained in RPMI-1640 (DMEM) supplemented with 10% (v/v) fetal bovine serum (FBS) and 1% (v/v) penicillin/streptomycin (Thermo Technologies, New York, NY, USA) under a humidified atmosphere containing 5% CO2 at 37 °C. To provide stock solutions which were used to prepare various concentrations of treatment media, GA and hybrids were added a volume of DMSO.
# (§2) The cytotoxicity of these compounds was evaluated on three human cancer cell lines (HepG2, HT-29, Hela) and three non-tumor cells lines (MDCK, HY926, H9C2) and MTT assay was performed to detect the cell proliferation. Simply, exponentially growing cells were cultured in 96-well plates (3 × 10^3 cells/well). And the plates were placed in a humidified atmosphere for 72 h at 37 °C with 5% CO2. After added MTT solution (5 mg/mL) 20 μL to each well, the plate was incubated for a further 4 h. Then the cell supernatant was removed and 150 μL DMSO was added. Finally, the absorbance was determined at wavelength of 490 nm with the ELISA. Wells without drugs were used to be blanks. The IC50 values were calculated using Logit-method. The following Eq. (1) was proposed to calculate the inhibitory rate of cell growth:1 %inhibition=1-Sample group OD/Control group OD×100%
# [2] = tested on: H9C2 cells; assay: MTT cytotoxicity assay, H9C2 (non-tumor); type: cell-based, rat; conditions: MTT, 72 h, mean ± SD (n = 3), non-tumor cells
# Description: as §1, §2
# [3] = tested on: MDCK cells; assay: MTT cytotoxicity assay, MDCK (non-tumor); type: cell-based, canine; conditions: MTT, 72 h, mean ± SD (n = 3), non-tumor cells
# Description: as §1, §2
# [4] = tested on: HY926 cells; assay: MTT cytotoxicity assay, HY926 (non-tumor); type: cell-based; conditions: MTT, 72 h, mean ± SD (n = 3), non-tumor cells
# Description: as §1, §2
# [5] = tested on: Hela cells; assay: MTT cytotoxicity assay, Hela; type: cell-based, human; conditions: MTT, 72 h, mean ± SD (n = 3)
# Description: as §1, §2
# [6] = tested on: HepG2 cells; assay: MTT cytotoxicity assay, HepG2; type: cell-based, human; conditions: mean ± SD (n = 3)
# Description: as §1, §2
SMILES,IC50 ([1]; 72 h),IC50 [2],IC50 [3],IC50 [4],IC50 [5],IC50 ([6]; 72 h),IC50 ([2]; listed as DDP),IC50 ([3]; listed as DDP),IC50 ([4]; listed as DDP),"IC50 ([1]; Homo sapiens, HT-29, 72 h)","IC50 ([2]; Rattus norvegicus, H9c2)","IC50 ([3]; Canis lupus familiaris, MDCK)","IC50 ([5]; Homo sapiens, HeLa)","IC50 ([6]; Homo sapiens, HepG2, 72 h)"
"CC1(C)[C@@H](OC(=O)/C=C/c2ccccc2)CC[C@]2(C)[C@H]3C(=O)C=C4[C@@H]5C[C@@](C)(C(=O)O)CC[C@]5(C)CC[C@@]4(C)[C@]3(C)CC[C@@H]12 [Compound 1a, Cinnamoyl-3β-hydroxy-11-oxoolean-12-en-30-oic acid]",22.3 ± 1.75 µM,46.1 ± 2.01 µM,22.6 ± 1.38 µM,28.9 ± 1.85 µM,23.7 ± 2.98 µM,24.4 ± 1.39 µM,–,–,–,–,–,–,–,–
"CC1(C(=O)O)CCC2(C)CCC3(C)C(=CC(=O)C4C5(C)CCC(OC(=O)CCc6ccccc6)C(C)(C)C5CCC43C)C2C1 (stereo not drawn) [Compound 1b, Phenylpropanoyl-3β-hydroxy-11-oxoolean-12-en-30-oic acid]",28.6 ± 2.99 µM,> 50 µM,33.3 ± 2.98 µM,33.6 ± 3.09 µM,26.9 ± 1.74 µM,32.3 ± 1 µM,–,–,–,–,–,–,–,–
"Cc1ccc(/C=C/C(=O)OC2CCC3(C)C(CCC4(C)C3C(=O)C=C3C5CC(C)(C(=O)O)CCC5(C)CCC34C)C2(C)C)cc1 (stereo not drawn) [Compound 2a, (4-Methyl) cinnamoyl-3β-hydroxy-11-oxoolean-12-en-30-oic acid]",21.7 ± 1.81 µM,> 50 µM,38 ± 1.81 µM,27.6 ± 1.84 µM,14.2 ± 1.1 µM,22.1 ± 1.18 µM,–,–,–,–,–,–,–,–
"COc1cccc(CCC(=O)OC2CCC3(C)C(CCC4(C)C3C(=O)C=C3C5CC(C)(C(=O)O)CCC5(C)CCC34C)C2(C)C)c1OC (stereo not drawn) [Compound 2b, (2,3-Dimethoxy) phenylpropanoyl-3β-hydroxy-11-oxoolean-12-en-30-oic acid]",29.3 ± 2.22 µM,45.8 ± 1.8 µM,41.3 ± 1.48 µM,> 50 µM,23.1 ± 2.33 µM,33.1 ± 2.09 µM,–,–,–,–,–,–,–,–
"COc1ccccc1/C=C/C(=O)OC1CCC2(C)C(CCC3(C)C2C(=O)C=C2C4CC(C)(C(=O)O)CCC4(C)CCC23C)C1(C)C (stereo not drawn) [Compound 3a, (2-Methoxy) cinnamoyl-3β-hydroxy-11-oxoolean-12-en-30-oic acid]",22.2 ± 2.34 µM,> 50 µM,22.9 ± 2.43 µM,> 50 µM,24.6 ± 1.72 µM,32 ± 1.9 µM,–,–,–,–,–,–,–,–
"COc1ccc(CCC(=O)O[C@H]2CC[C@]3(C)[C@H]4C(=O)C=C5[C@@H]6C[C@@](C)(C(=O)O)CC[C@]6(C)CC[C@@]5(C)[C@]4(C)CC[C@H]3C2(C)C)c(OC)c1OC [Compound 3b, (2,3,4-Trimethoxy) phenylpropanoyl-3β-hydroxy-11-oxoolean-12-en-30-oic acid]",26.2 ± 1.24 µM,> 50 µM,> 30 µM,38.5 ± 2.02 µM,22.5 ± 2.16 µM,27.3 ± 1.95 µM,–,–,–,–,–,–,–,–
"COc1cccc(/C=C/C(=O)OC2CCC3(C)C(CCC4(C)C3C(=O)C=C3C5CC(C)(C(=O)O)CCC5(C)CCC34C)C2(C)C)c1 (stereo not drawn) [Compound 4a, (3-Methoxy) cinnamoyl-3β-hydroxy-11-oxoolean-12-en-30-oic acid]",14.9 ± 1.8 µM,> 50 µM,22.2 ± 2.56 µM,31 ± 1.87 µM,17.5 ± 1.52 µM,12.7 ± 1.1 µM,–,–,–,–,–,–,–,–
"COc1cc(CCC(=O)OC2CCC3(C)C(CCC4(C)C3C(=O)C=C3C5CC(C)(C(=O)O)CCC5(C)CCC34C)C2(C)C)cc(OC)c1OC (stereo not drawn) [Compound 4b, (3,4,5-Trimethoxy) phenylpropanoyl-3β-hydroxy-11-oxoolean-12-en-30-oic acid]",22.4 ± 1.2 µM,> 50 µM,> 30 µM,> 50 µM,28.7 ± 1.68 µM,22.4 ± 1.29 µM,–,–,–,–,–,–,–,–
"COc1ccc(C=CC(=O)OC2CCC3(C)C(CCC4(C)C3C(=O)C=C3C5CC(C)(C(=O)O)CCC5(C)CCC34C)C2(C)C)cc1 (stereo not drawn) [Compound 5a, (4-Methoxy) cinnamoyl-3β-hydroxy-11-oxoolean-12-en-30-oic acid]",33 ± 1.92 µM,36.1 ± 1.92 µM,21.7 ± 1.01 µM,> 50 µM,23.4 ± 1.38 µM,31.2 ± 1.34 µM,–,–,–,–,–,–,–,–
"COc1cccc(/C=C/C(=O)OC2CCC3(C)C(CCC4(C)C3C(=O)C=C3C5CC(C)(C(=O)O)CCC5(C)CCC34C)C2(C)C)c1OC (stereo not drawn) [Compound 6a, (2,3-Dimethoxy) cinnamoyl-3β-hydroxy-11-oxoolean-12-en-30-oic acid]",24.4 ± 1.76 µM,> 50 µM,33.7 ± 1.4 µM,25 ± 1.38 µM,22.5 ± 2.08 µM,24.4 ± 1.44 µM,–,–,–,–,–,–,–,–
"COc1ccc(OC)c(/C=C/C(=O)OC2CCC3(C)C(CCC4(C)C3C(=O)C=C3C5CC(C)(C(=O)O)CCC5(C)CCC34C)C2(C)C)c1 (stereo not drawn) [Compound 7a, (2,5-Dimethoxy) cinnamoyl-3β-hydroxy-11-oxoolean-12-en-30-oic acid]",26.4 ± 1.96 µM,> 50 µM,> 50 µM,45.1 ± 2.25 µM,28 ± 1.63 µM,25.4 ± 1.97 µM,–,–,–,–,–,–,–,–
"COc1cc(/C=C/C(=O)O[C@H]2CC[C@]3(C)[C@H]4C(=O)C=C5[C@@H]6C[C@@](C)(C(=O)O)CC[C@]6(C)CC[C@@]5(C)[C@]4(C)CC[C@H]3C2(C)C)cc(OC)c1OC [Compound 9a, (3,4,5-Trimethoxy) cinnamoyl-3β-hydroxy-11-oxoolean-12-en-30-oic acid]",25.5 ± 1.29 µM,47.4 ± 1.07 µM,27.7 ± 1.08 µM,30.8 ± 1.37 µM,30.7 ± 1.89 µM,21.9 ± 1.41 µM,–,–,–,–,–,–,–,–
"N.N.[Cl][Pt][Cl] [DPP, cisplatin, reference compound]",5.28 ± 0.74 µM,5.31 ± 0.26 µM,9.97 ± 1.12 µM,5.12 ± 0.71 µM,3.76 ± 0.38 µM,4.57 ± 0.85 µM,< 10 µM,< 10 µM,< 10 µM,–,–,–,–,–
"CC1(C)[C@@H](O)CC[C@]2(C)[C@H]3C(=O)C=C4[C@@H]5C[C@@](C)(C(=O)O)CC[C@]5(C)CC[C@@]4(C)[C@]3(C)CC[C@@H]12 [GA, Glycyrrhetinic acid]",–,–,–,> 100 µM,–,–,–,–,–,> 50 µM,> 100 µM,> 100 µM,> 50 µM,> 50 µM
